This note sets out measurements from BindingDB's records for PubMed 34843914 (China Pharmaceutical University, 2022).

The target of the experiment is Poly [ADP-ribose] polymerase 1 (Homo sapiens, UniProt P09874). Nature of the experiment: Inhibition of PARP1 (unknown origin).
Sequence of Poly [ADP-ribose] polymerase 1 (P09874 whole entry): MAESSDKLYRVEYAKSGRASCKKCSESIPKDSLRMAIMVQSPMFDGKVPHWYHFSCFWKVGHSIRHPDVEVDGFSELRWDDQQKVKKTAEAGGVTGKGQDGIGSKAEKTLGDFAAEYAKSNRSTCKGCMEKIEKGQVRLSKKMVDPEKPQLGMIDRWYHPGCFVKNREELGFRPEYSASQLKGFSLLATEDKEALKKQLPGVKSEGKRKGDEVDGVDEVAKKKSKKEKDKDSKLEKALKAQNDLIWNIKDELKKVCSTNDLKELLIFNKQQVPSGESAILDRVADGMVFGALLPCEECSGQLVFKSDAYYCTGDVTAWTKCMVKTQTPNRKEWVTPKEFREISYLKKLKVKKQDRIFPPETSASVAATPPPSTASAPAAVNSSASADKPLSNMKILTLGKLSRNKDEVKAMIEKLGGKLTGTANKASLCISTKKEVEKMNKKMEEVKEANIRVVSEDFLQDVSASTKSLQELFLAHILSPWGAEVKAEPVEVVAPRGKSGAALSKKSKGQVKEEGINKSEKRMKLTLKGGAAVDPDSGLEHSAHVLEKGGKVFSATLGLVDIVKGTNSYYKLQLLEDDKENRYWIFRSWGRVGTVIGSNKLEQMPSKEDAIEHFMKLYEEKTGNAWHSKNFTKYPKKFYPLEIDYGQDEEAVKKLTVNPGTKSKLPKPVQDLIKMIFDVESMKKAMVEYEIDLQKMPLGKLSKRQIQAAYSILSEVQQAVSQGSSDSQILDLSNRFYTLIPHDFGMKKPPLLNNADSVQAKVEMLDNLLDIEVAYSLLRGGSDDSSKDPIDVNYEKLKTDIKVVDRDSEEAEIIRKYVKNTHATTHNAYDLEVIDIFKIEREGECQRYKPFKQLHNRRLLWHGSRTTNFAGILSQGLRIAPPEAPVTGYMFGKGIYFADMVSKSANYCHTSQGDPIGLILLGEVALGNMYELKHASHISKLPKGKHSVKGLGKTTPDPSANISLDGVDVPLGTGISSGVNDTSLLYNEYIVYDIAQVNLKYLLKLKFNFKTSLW

By IC50 is commonly meant the point on the concentration scale where inhibition reaches its midpoint. A high value points to weaker potency in that assay. On to `O=c1cc(O)cc2oc(-c3ccc(O)c(-c4c(O)cc(O)c5c(=O)cc(-c6ccc(O)cc6)oc45)c3)cc(O)c1-2`, for which the IC50 is 259 nM.
